Experimental data: US6761123B2, “INFUSION OF COMBUSTION GASES INTO BALLAST WATER PREFERABLY UNDER LESS THAN ATMOSPHERIC PRESSURE TO SYNERGISTICALLY KILL HARMFUL AQUATIC NUISANCE SPECIES BY SIMULTANEOUS HYPERCAPNIA, HYPOXIA AND ACIDIC PH LEVEL” (MH Systems, priority 2001, dated 2004)

Key:
brittle stars = experiment: Incubation of brittle stars in gas-equilibrated seawater, survival by motile response; type: in vivo; conditions: transfer to aerobic conditions
Description: (§1) The purpose of the experiments described here was to obtain data on the effects of “inert gas” on marine organisms. “Inert gas” of a mixture hereinafter called trimix—a commercially available gas mixture of […], 12% CO2 and 84% nitrogen resembling the gas generated by commercially used marine “inert gas generators”—was used. Both adult and young adult marine organisms were chosen for two reasons: a) to make the size of specimens amenable for the experimental setup and b) to raise the significance of possible effects since adults of a species are typically more tolerant of environmental changes than juveniles or larvae. All marine organisms were collected fresh from the coastal waters off La Jolla, Calif. and used immediately. They are, in that particular environment, not necessarily nuisance organisms. Some of the organisms might be so considered, however, should they be introduced into other waters. […]
(§2) The schematic of an experimental setup in validation of the principles and methods of the present invention (and also, a miniature scale, the gaseous exchange system) is shown in FIG. 1. […] The oxygen concentrations were measured after the initial bubbling period using a Strathkelvin oxygen electrode with a Cameron instruments OM-200 oxygen analyzer. Values of pH were determined using a combination electrode and a Radiometer pH meter. […]

mussels = experiment: Incubation of mussels in gas-equilibrated seawater, survival by shell closing on tactile stimulus; type: in vivo; conditions: after 95 min incubation
Description: as §1, §2

barnacles = experiment: Incubation of barnacles in gas-equilibrated seawater, survival by withdrawal of feet when disturbed; type: in vivo; conditions: 1.5 l seawater, 22° C., equilibrated with gas
Description: as §1, §2

[1] = test system: plankton sample (mainly copepods); experiment: Incubation of plankton sample (mainly copepods) in gas-equilibrated seawater; type: in vivo
Description: as §1, §2

[2] = Oxygen concentration and pH of seawater bubbled with the gas; type: physicochemical
Method: The schematic of an experimental setup in validation of the principles and methods of the present invention (and also, a miniature scale, the gaseous exchange system) is shown in FIG. 1. Three parallel incubations were done for each experiment. Several organisms were incubated in 1.5 l of seawater at 22° C. in large Erlenmeyer flasks. Each incubation was equilibrated with the respective gas using aquarium stones before any organisms were introduced. The aerobic control was bubbled from an aquarium pump for approximately 15 min and left open to the atmosphere after addition of specimens. An anaerobic incubation was bubbled with 99.998% nitrogen for 15 min. After introduction of the organisms, the bubbling was continued for another 10 min and then the container was closed with a rubber stopper or the bubbling was continued. The incubation in […] treated similarly except that the gas mix was used instead of nitrogen. The oxygen concentrations were measured after the initial bubbling period using a Strathkelvin oxygen electrode with a Cameron instruments OM-200 oxygen analyzer. Values of pH were determined using a combination electrode and a Radiometer pH meter.

oxygen concentration of the incubation ([2]; measured after the initial bubbling period, oxygen electrode): non-detectable
pH value of the seawater bubbled with the gas ([2]; seawater, normal pH 8, trimix value after initial 10 min of vigorous bubbling): 8
Compound: N#N [nitrogen]
movement of brittle stars after transfer into aerated water (brittle stars): started to move again
response of mussels to tactile stimuli (closing shells) (mussels): still responded to tactile stimuli by closing their shells
state of mussel shells (mussels): open
state of barnacles after incubation (withdrawal of feet when disturbed) (barnacles): still behaved normally
time after which plankton (mainly copepods) stopped moving ([1]; 1.5 l seawater, 22° C., equilibrated with gas): 15 min
revival of plankton (mainly copepods) ([1]; after they stopped moving): could not be revived
